{"source": "patent US8389012B2", "about": "“Gellan-gum nanoparticles and methods of making and using the same” (The Corporation of Mercer University, priority 2008, dated 2013)", "key": {"PC-3 tumors [1]": {"test_system": "PC-3 tumors", "assay": "In vivo efficacy in athymic nude mice bearing human xenograft prostate cancer tumor", "conditions": "single i.v. injection, 60 days", "method": "For in vivo efficacy study, athymic nude mice bearing human prostate tumor (−150 mm^3) were divided into five groups of four mice, minimizing, weight and tumor size differences. […] Human xenograft prostate cancer tumors were induced in 6-week old athymic nude mice (NCI Frederick, Md., USA). Mice were injected subcutaneously in the right flank with 2.5×10^6 PC-3 cells suspended in a 1:1 mixture of serum-free media and matrigel (BD Biosciences, Franklin Lakes, N.J., USA). Prior to use in tumor induction, PC-3 cells were cultured in RPMI-1640 medium supplemented with 10% fetal bovine serum, 100 units/ml penicillin G, and 100 mg/ml streptomycin. Tumor targeting studies were carried out after the mice developed ˜150 mm^3 tumors. […] After dosing, the mice were monitored for weight and implanted tumor size daily for sixty days. The length and width of the tumors were measured by digital calipers and tumor volume was calculated by the following formula: (width^2×length)/2 [17]. […]\nTo evaluate the in vivo efficacy of Ptx-GGbPEG-Apt copolymeric nanoparticles, PC-3 cells were injected subcutaneously in the flanks of athymic nude mice as described above. […] The tumor size and body weight were then monitored for 60 days."}, "PC-3 cells": {"test_system": "PC-3 cells", "assay": "MTT cytotoxicity assay, PC-3", "assay_type": "cell-based, human", "conditions": "PC-3, 10, 30, 120 minutes treatment, then 72 h", "procedure": "To investigate the cytotoxicity of Ptx-GGbPEG-Apt nanoparticles on human prostate cancer cells, mitochondrial dehydrogenase assay (MTT) was employed. PC-3 or DU-145 cells (5×10^3) were seeded in 96-well plates containing 100 μl of RPMI medium 1640 (American Type Culture Collection), supplemented with 100 units/ml aqueous penicillin G, 100 μg/ml streptomycin, and 10% FBS. Cells were then allowed to adhere overnight prior to treatment. On the day of experiment, cells were washed twice with PBS and then exposed to similar concentrations (25 μg/ml) of Ptx in either the encapsulated or free formulations. The control cells received 1% (v/v) DMSO or drug free GGbPEG nanoparticles (1.0 μg/ml). Cells were incubated with drug formulations for different time points (10, 30, 120 mins) followed by washing with PBS and replacing treatment medium with fresh medium in the plates. Cells were further incubated for 72 h. […] The optical densities (OD) of the resulting solutions were determined at 490 nm using a microplate reader (Packard Instruments, Meriden, Conn.) and cell viability (%) was calculated by comparing the OD of the treatment group relative to that of the untreated control group (100%)."}, "[2]": {"conditions": "i.v.; cited from earlier work"}, "DU-145 cells": {"test_system": "DU-145 cells", "assay": "MTT cytotoxicity assay, DU-145", "assay_type": "cell-based, human", "conditions": "then 72 h; for viability at 25 µg/mL: Homo sapiens, DU-145, DU-145, 25 μg/ml Ptx, read-out: cell viability", "procedure": "To investigate the cytotoxicity of Ptx-GGbPEG-Apt nanoparticles on human prostate cancer cells, mitochondrial dehydrogenase assay (MTT) was employed. PC-3 or DU-145 cells (5×10^3) were seeded in 96-well plates containing 100 μl of RPMI medium 1640 (American Type Culture Collection), supplemented with 100 units/ml aqueous penicillin G, 100 μg/ml streptomycin, and 10% FBS. Cells were then allowed to adhere overnight prior to treatment. On the day of experiment, cells were washed twice with PBS and then exposed to similar concentrations (25 μg/ml) of Ptx in either the encapsulated or free formulations. The control cells received 1% (v/v) DMSO or drug free GGbPEG nanoparticles (1.0 μg/ml). Cells were incubated with drug formulations for different time points (10, 30, 120 mins) followed by washing with PBS and replacing treatment medium with fresh medium in the plates. Cells were further incubated for 72 h. At the end of treatment period, medium was removed and replaced with 100 μl of complete culture medium and 10 μl of MTT (5 mg/ml) in each well and the plates were incubated at 37° C. in a humidified, 5% CO2 atmosphere for 3 h. The resulting formazan crystals were solubilized with 100 μl of the stop solution (0.1N HCl in isopropanol). The optical densities (OD) of the resulting solutions were determined at 490 nm using a microplate reader (Packard Instruments, Meriden, Conn.) and cell viability (%) was calculated by comparing the OD of the treatment group relative to that of the untreated control group (100%)."}, "PC-3 tumors [3]": {"test_system": "PC-3 tumors", "assay": "Histological analysis of excised tumor (H & E)", "assay_type": "in vivo, mice", "conditions": "day 60 post treatment", "procedure": "Selected tumors from each group were harvested and fixed in 10% neutral buffered formalin. Tumors were paraffin embedded, sectioned, placed on polylysine slides, and stained with Hematoxylin & Eosin (H & E) to visualize morphological changes in the tumors in both the treated and control groups. Images were recorded using a light microscope equipped with camera."}}, "note": "Like-named read-outs stand apart in the source and are kept apart here."}
{"smiles": "CC(=O)O[C@H]1C(=O)[C@@]2(C)[C@H]([C@H](OC(=O)c3ccccc3)[C@]3(O)C[C@H](OC(=O)[C@H](O)[C@@H](NC(=O)c4ccccc4)c4ccccc4)C(C)=C1C3(C)C)[C@]1(OC(C)=O)CO[C@@H]1C[C@@H]2O", "note": "[Ptx, Paclitaxel]", "values": [{"measurement": "efficacy in tumor reduction (comparison of groups)", "setting": "PC-3 tumors [1]", "value": "does not show any significant long-term efficacy"}, {"measurement": "cytotoxic effect", "setting": "PC-3 cells", "value": "time-dependent cytotoxicity"}, {"measurement": "maximal tolerated dose (MTD)", "setting": "[2]", "value": 40, "unit": "mg/kg"}, {"measurement": "cytotoxic effect", "setting": "DU-145 cells; DU-145, 10, 30, 120 minutes treatment", "value": "time-dependent cytotoxicity"}, {"measurement": "viability at 25 µg/mL", "setting": "DU-145 cells; treated 30 minutes", "value": 50, "unit": "%"}, {"measurement": "viability at 25 µg/mL", "setting": "DU-145 cells; treated 120 min", "value": 35, "unit": "%"}, {"measurement": "histological examination of tumors by H & E staining", "setting": "PC-3 tumors [3]", "value": "extensively necrotic"}]}
